Measurements reported in patent USRE48461E1, “Modulation of androgen receptor expression” (Ionis Pharmaceuticals, Inc., priority 2012, dated 2021).
Oligonucleotides are written 5' to 3', each unit as a sugar letter and its base; * is a phosphorothioate linkage, no mark a phosphodiester; rarer units and linkages stand in square brackets, end groups in braces. Plain capitals give the bases only. k = constrained ethyl (cEt); [5mC] = 5-methylcytosine; d = 2'-deoxy (DNA)

Assays:
[1] = test system: AR mRNA; test: Antisense inhibition of human AR in HuVEC cells, single concentration (electroporation, qRT-PCR RTS3559); assay type: cell-based; settings: electroporation, approximately 24 hours, relative to untreated control
In short: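 HuVEC cells electroporated with antisense oligonucleotides at a single concentration. AR mRNA quantified by qRT-PCR using human primer-probe set RTS3559 and normalised to total RNA content by RIBOGREEN.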

[2] = test system: AR mRNA; test: Dose-dependent antisense inhibition of human AR in HuVEC cells (electroporation, qRT-PCR RTS3559, IC50); assay type: cell-based; settings: HuVEC, electroporation, approximately 16 hours
In short: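 HuVEC cells dosed with antisense oligonucleotides by electroporation and treated approximately 16 hours. AR mRNA quantified by real-time qPCR with primer probe set RTS3559 and normalised to total RNA by RIBOGREEN; IC50 from dose-response.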

[3] = test system: AR mRNA; test: AR mRNA in LnCaP cells by free uptake (hAR_LTS00943); assay type: cell-based, human; settings: 24 hrs
Procedure: Cells were plated at a concentration of 4,000 cells/well in 96-well plates. ISIS oligonucleotides, specified in Table 68, were added individually at 0.02 μM, 0.10 μM, 0.50 μM, 2.50 μM, or 10.00 μM. After an incubation period of 24 hrs, mRNA levels were measured using primer probe set hAR_LTS00943.

[4] = test system: AR mRNA; test: AR mRNA in liver, heart, skeletal muscle, kidney, prostate of cynomolgus monkeys; assay type: in vivo; settings: cynomolgus monkey, 40 mg/kg subcutaneously; for Percent Inhibition of AR mRNA relative to the PBS control, Heart: weeks 1 to 6, Heart; for Percent Inhibition of AR mRNA relative to the PBS control, Kidney: weeks 1 to 6, Kidney; for Percent Inhibition of AR mRNA relative to the PBS control, Liver: weeks 1 to 6, Liver; for Percent Inhibition of AR mRNA relative to the PBS control, Prostate: weeks 1 to 6, Prostate; for Percent Inhibition of AR mRNA relative to the PBS control, Skeletal Muscle: weeks 1 to 6, Skeletal Muscle
Procedure: Cynomolgus monkeys were treated with ISIS antisense oligonucleotides selected from studies described above. Antisense oligonucleotide efficacy and tolerability were evaluated. The human antisense oligonucleotides tested are cross-reactive with the rhesus genomic sequence (GENBANK Accession No. NW_001218131.1 truncated from nucleotides 134001 to 308000 and designated herein as SEQ ID NO: 189). The target start site and target region of each oligonucleotide to SEQ ID NO: 189, as well as the details of their chemistry and sequence, is presented in Table 133.
RNA was extracted from liver, heart, skeletal muscle, kidney, and prostate tissues for real-time PCR analysis of AR using primer probe set RTS3559. The results were normalized to RIBOGREEN®. Results are presented as percent inhibition of AR mRNA, relative to PBS control.

[5] = Table 24, 1,000 nM oligonucleotide

## 584468 (k[5mC]*kA*kT*dT*dG*dT*dA*d[5mC]*dT*dA*dT*dG*d[5mC]*k[5mC]*kA*kG) [compound 584468]
[1]; Table 27, 1,000 nM oligonucleotide
  % inhibition: 64%
[2]; Table 36
  percent inhibition of AR, 46.9 nM: 9%
  percent inhibition of AR, 187.5 nM: 26%
  percent inhibition of AR, 750.0 nM: 60%
  percent inhibition of AR, 3000.0 nM: 90%
  IC50: 0.37 µM
[3]; 0.02 μM
  Percent inhibition of AR mRNA: 0%
[3]; 0.1 μM
  Percent inhibition of AR mRNA: 0%
[3]; 0.5 μM
  Percent inhibition of AR mRNA: 10%
[3]; 10 μM
  Percent inhibition of AR mRNA: 73%
[4]
  Percent Inhibition of AR mRNA relative to the PBS control, Heart: 33%
  Percent Inhibition of AR mRNA relative to the PBS control, Kidney: 88%
  Percent Inhibition of AR mRNA relative to the PBS control, Liver: 97%
  Percent Inhibition of AR mRNA relative to the PBS control, Prostate: 50%
  Percent Inhibition of AR mRNA relative to the PBS control, Skeletal Muscle: 53%

## 583918 (kA*kG*kT*d[5mC]*dG*d[5mC]*dG*dA*d[5mC]*dT*d[5mC]*dT*dG*kG*kT*kA) [compound 583918]
[1]; Table 21, 500 nM oligonucleotide
  % inhibition: 47%
[2]; Table 33
  percent inhibition of AR, 46.9 nM: 16%
  percent inhibition of AR, 187.5 nM: 47%
  percent inhibition of AR, 750.0 nM: 68%
  percent inhibition of AR, 3000.0 nM: 86%
  IC50: 0.3 µM
[3]; 0.02 μM
  Percent inhibition of AR mRNA: 8%
[3]; 0.1 μM
  Percent inhibition of AR mRNA: 0%
[3]; 0.5 μM
  Percent inhibition of AR mRNA: 0%
[3]; 10 μM
  Percent inhibition of AR mRNA: 13%
[4]
  Percent Inhibition of AR mRNA relative to the PBS control, Heart: 76%
  Percent Inhibition of AR mRNA relative to the PBS control, Kidney: 73%
  Percent Inhibition of AR mRNA relative to the PBS control, Liver: 88%
  Percent Inhibition of AR mRNA relative to the PBS control, Prostate: 58%
  Percent Inhibition of AR mRNA relative to the PBS control, Skeletal Muscle: 74%

## 584269 (k[5mC]*k[5mC]*kT*dT*dA*dT*dG*dG*dA*dT*dG*d[5mC]*dT*kG*k[5mC]*kT) [compound 584269]
[1]; Table 25, 1,000 nM oligonucleotide
  % inhibition: 57%
[2]; Table 36
  percent inhibition of AR, 46.9 nM: 6%
  percent inhibition of AR, 187.5 nM: 26%
  percent inhibition of AR, 750.0 nM: 69%
  percent inhibition of AR, 3000.0 nM: 92%
  IC50: 0.34 µM
[3]; 0.02 μM
  Percent inhibition of AR mRNA: 0%
[3]; 0.1 μM
  Percent inhibition of AR mRNA: 0%
[3]; 0.5 μM
  Percent inhibition of AR mRNA: 0%
[3]; 10 μM
  Percent inhibition of AR mRNA: 23%
[4]
  Percent Inhibition of AR mRNA relative to the PBS control, Heart: 72%
  Percent Inhibition of AR mRNA relative to the PBS control, Kidney: 92%
  Percent Inhibition of AR mRNA relative to the PBS control, Liver: 96%
  Percent Inhibition of AR mRNA relative to the PBS control, Prostate: 41%
  Percent Inhibition of AR mRNA relative to the PBS control, Skeletal Muscle: 76%

## 584163 (kG*kA*kA*d[5mC]*dA*dT*dT*dA*dT*dT*dA*dG*dG*k[5mC]*kT*kA) [compound 584163]
[1]; [5]
  % inhibition: 81%
[2]; Table 35
  percent inhibition of AR, 46.9 nM: 19%
  percent inhibition of AR, 187.5 nM: 37%
  percent inhibition of AR, 750.0 nM: 74%
  percent inhibition of AR, 3000.0 nM: 90%
  IC50: 0.25 µM
[3]; 0.02 μM
  Percent inhibition of AR mRNA: 0%
[3]; 0.1 μM
  Percent inhibition of AR mRNA: 0%
[3]; 0.5 μM
  Percent inhibition of AR mRNA: 19%
[3]; 10 μM
  Percent inhibition of AR mRNA: 70%
[4]
  Percent Inhibition of AR mRNA relative to the PBS control, Heart: 53%
  Percent Inhibition of AR mRNA relative to the PBS control, Kidney: 90%
  Percent Inhibition of AR mRNA relative to the PBS control, Liver: 98%
  Percent Inhibition of AR mRNA relative to the PBS control, Prostate: 58%
  Percent Inhibition of AR mRNA relative to the PBS control, Skeletal Muscle: 73%

## 584149 (kG*kT*k[5mC]*dA*dA*dT*dA*dT*d[5mC]*dA*dA*dA*dG*k[5mC]*kA*k[5mC]) [compound 584149]
[1]; [5]
  % inhibition: 85%
[2]; Table 35
  percent inhibition of AR, 46.9 nM: 11%
  percent inhibition of AR, 187.5 nM: 37%
  percent inhibition of AR, 750.0 nM: 68%
  percent inhibition of AR, 3000.0 nM: 89%
  IC50: 0.31 µM
[3]; 0.02 μM
  Percent inhibition of AR mRNA: 0%
[3]; 0.1 μM
  Percent inhibition of AR mRNA: 0%
[3]; 0.5 μM
  Percent inhibition of AR mRNA: 0%
[3]; 10 μM
  Percent inhibition of AR mRNA: 39%
[4]
  Percent Inhibition of AR mRNA relative to the PBS control, Heart: 33%
  Percent Inhibition of AR mRNA relative to the PBS control, Kidney: 77%
  Percent Inhibition of AR mRNA relative to the PBS control, Liver: 93%
  Percent Inhibition of AR mRNA relative to the PBS control, Prostate: 45%
  Percent Inhibition of AR mRNA relative to the PBS control, Skeletal Muscle: 63%
